Legend:
[1] = DPPH radical scavenging activity; conditions: samples at 100 μg/mL; 30 min at 30 °C; mean ± SE, n=3
Description: The ability of the extracts to scavenge free radicals was determined according to the method of Hosny, et al 2002 [24]. In a 96-well plate, 10 μL of each sample or standard dissolved in ethanol (100 μg/mL) was added to 190 μL of 316 μM/mL DPPH solution. A blank was prepared using ethanol. After incubation at 30 °C for 30 min, the absorbance of each solution was measured at 517 nm. DL-α-tocopherol and BHT were used as positive controls. […] All experiments were carried out in triplicate.

[2] = tested on: FeSO4/H2O2-stimulated lipid peroxidation (MDA production) in rat tissue homogenates; assay: FeSO4/H2O2-stimulated lipid peroxidation (MDA production, TBARS) in rat tissue homogenates; type: biochemical; conditions: 200 μg/mL, mean ± SE, n=3; for Inhibition (%) Brain: rat brain homogenate; for Inhibition (%) Heart: rat heart homogenate; for Inhibition (%) Liver: rat liver homogenate
Description: During aerobic incubation of the tissue homogenates, MDA released reacts with thiobarbituric acid (TBA) to give a pink colour. The capability of the samples to inhibit MDA formation is used as a measure of their antioxidant activity. […] The results were expressed as nanomoles of MDA equivalents per milligram of protein of rat (brain, heart and liver) homogenates. All measurements were done in triplicate. The capability to inhibit MDA formation was calculated using the following equation: Inhibition effects (%)=1-MDA in tissue homogenate with test extracts/MDA in tissue homogenate without test extracts×100

Row | Structure (SMILES) | DPPH % inhibition [1] | Inhibition (%) Brain [2] | Inhibition (%) Heart [2] | Inhibition (%) Liver [2]
1 | Cc1c(C)c2c(c(C)c1O)CC[C@@](C)(CCC[C@H](C)CCC[C@H](C)CCCC(C)C)O2 (racemic) [DL-α-tocopherol] | 66.5 ± 2.75% | 62.90 ± 2.18% | 58.70 ± 1.80% | 71.10 ± 2.25%
2 | Cc1cc(C(C)(C)C)c(O)c(C(C)(C)C)c1 [BHT, butylated hydroxytoluene] | 55.3 ± 1.50% | 52.48 ± 1.72% | 43.23 ± 1.65% | 53.20 ± 1.65%

Source: article PMC3221499, “A New Flavonoid C-Glycoside from Celtis australis L. and Celtis occidentalis L. Leaves and Potential Antioxidant and Cytotoxic Activities” (Scientia Pharmaceutica, 2011)
